Measured values reported in US20120321579A1, “SURFACTANT COMPOSITIONS” (ANTERIOS, INC., priority 2011, published 2012).

Tested on: Axillary Sweating
Assay: Clinical study to evaluate effect of Polysorbate 80 on axillary sweating (gravimetric sweat measurement)
Assay type: in vivo, human

## Polysorbate 80
Conclusion from the clinical study
  conclusion on activity in reducing sweat production: biologically active in reducing sweat production
Two weeks after a single topical treatment, 14.34 mg Polysorbate 80 per axilla (0.3 mL/axilla), subjects with moderate to severe primary axillary hyperhidrosis, 5 minute collection
  reduction in sweat production (average) as measured by gravimetric sweat measurement: 159 mg
Two weeks after a single topical treatment, 14.34 mg per axilla, 159 mg versus 53 mg placebo
  greater reduction in sweat production than the subjects in the control group (placebo, water): 300%
Two weeks after a single topical treatment, 14.34 mg per axilla, gravimetric sweat measurement
  percent of subjects with at least a 30% reduction in sweat production when compared to levels at the Baseline visit: 80%
Two weeks after a single topical treatment, 80% versus 29% of subjects with at least a 30% reduction
  greater effectiveness in reducing sweat production than subjects treated with placebo (responder assessment): 280%
